{
  "source": "paper PMC3913652",
  "about": "(PLoS ONE, 2014)",
  "key": {"[1]": {"assay": "Stability in pancreatic digestive enzyme mix", "format": "in vitro ADME", "conditions": "50 mM phosphate buffer pH 6.8, peptide 30 mM, 20:1 peptide to pancreatic mixture, 37°C, reverse-phase HPLC, AUC 0–2 h as % remaining vs stable control ± SEM, n = 3 (exenatide, [Leu^14]exenatide-ABP n = 2)", "experimental": "Stability of peptides was also assessed in a mixture of amylase, lipase and protease (pancreatin, Cat.# P7545-25 g, Sigma-Aldrich, St. Louis, MO), which are digestive enzymes produced by pancreatic exocrine cells. Peptides (30 mM) in 50 mM phosphate buffer (pH 6.8) and citrate buffers (pH 4 & pH 5) were incubated for 2 hours in pancreatic mixture at 37°C (20∶1 ratio of peptide to pancreatic mixture) (n = 3). The enzymatic reaction was stopped with the addition of 0.2 N HCl (final concentration of peptide 10 mM) at each time point."}, "rat GLP-1 receptor": {"target": "T1, rat GLP-1 receptor (Rattus norvegicus, UniProt P32301)", "T1 construct": "6–23 clone 6 cells endogenously expressing the rat GLP-1 receptor; endogenous in cells; host or cells: 6-23 clone 6 cells", "T1 sequence (P32301 22-463)": "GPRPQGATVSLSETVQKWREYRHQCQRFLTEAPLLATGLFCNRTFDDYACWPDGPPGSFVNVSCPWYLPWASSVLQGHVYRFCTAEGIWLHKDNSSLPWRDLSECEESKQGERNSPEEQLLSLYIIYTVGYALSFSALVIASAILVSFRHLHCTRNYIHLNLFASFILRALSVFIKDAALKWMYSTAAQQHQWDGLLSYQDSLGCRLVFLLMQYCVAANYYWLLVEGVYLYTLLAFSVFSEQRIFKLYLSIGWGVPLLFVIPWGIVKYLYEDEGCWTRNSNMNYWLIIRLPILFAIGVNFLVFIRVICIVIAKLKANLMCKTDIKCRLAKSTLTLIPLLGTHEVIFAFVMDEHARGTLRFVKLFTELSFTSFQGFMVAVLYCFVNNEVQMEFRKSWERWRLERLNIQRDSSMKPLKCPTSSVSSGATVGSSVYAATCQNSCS", "assay": "GLP-1 receptor functional assay (cAMP)", "format": "cell-based", "conditions": "6–23 clone 6 cells, HBSS 0.1% BSA, 250 µM IBMX, 30 minutes, quadruplicates", "experimental": "Following 30 minutes incubation, the cAMP was measured using the cAMP Dynamic 2 assay (Cisbio US, Bedford, MA) as per the manufacturer’s instructions. cAMP was detected by a decrease in time-resolved fluorescence energy transfer using a GeniousPro plate reader (Tecan US, San Jose, CA).\nResults are presented as means ± SEM, graphed and analyzed using GraphPad Prism 5®. The potency of peptides in the in vitro functional assay and in an OGTT was determined by the analysis of concentration-response curves using non-linear regression analysis."}},
  "data": [
    {"molecule": "CC[C@H](C)[C@H](NC(=O)[C@H](Cc1c[nH]cn1)NC(=O)[C@H](CC(C)C)NC(=O)[C@H](CCCCN)NC(=O)[C@H](CC(C)C)NC(=O)[C@H](C)NC(=O)[C@H](CCC(=O)O)NC(=O)[C@@H](NC(=O)CNC(=O)[C@H](CCC(=O)O)NC(=O)[C@@H](NC(=O)[C@@H](NC(=O)[C@H](CCCCN)NC(=O)[C@H](C)NC(=O)[C@H](CCCCN)NC(=O)[C@H](CC(N)=O)NC(=O)[C@@H](NC(=O)[C@H](CC(C)C)NC(=O)[C@H](CCCNC(=N)N)NC(=O)[C@H](CCCCN)NC(=O)[C@H](Cc1ccc(O)cc1)NC(=O)[C@H](Cc1ccccc1)NC(=O)[C@H](CC(=O)O)NC(=O)[C@H](CO)NC(=O)[C@@H](NC(=O)CNC(=O)[C@H](Cc1ccc(O)cc1)NC(=O)[C@H](CCCCN)NC(=O)[C@H](CC(=O)O)NC(=O)[C@H](CC(C)C)NC(=O)[C@H](CCC(=O)O)NC(=O)[C@H](CCCNC(=N)N)NC(=O)[C@H](CC(N)=O)NC(=O)[C@H](C)NC(=O)[C@H](CC(C)C)NC(=O)[C@@H](NC(=O)[C@H](CCCCN)NC(=O)[C@H](C)NC(=O)[C@H](CCC(=O)O)NC(=O)[C@H](C)NC(=O)[C@@H](N)CC(C)C)C(C)C)C(C)C)[C@@H](C)CC)[C@@H](C)O)C(C)C)C(C)C)C(=O)N[C@@H](CC(C)C)C(=O)N[C@@H](C)C(=O)N[C@@H](C)C(=O)N[C@@H](CC(C)C)C(=O)N1CCC[C@H]1C(=O)O", "note": "[ABD035]", "values": [
      {"measurement": "2 h Stability in Pancreatin Mix (%) pH 6.8", "setting": "[1]", "value": "10±2", "unit": "%"},
      {"measurement": "GLP-1 Receptor Functional Assay EC50", "setting": "rat GLP-1 receptor", "value": "not active"}
    ]}
  ]
}
